Data: patent publication US5559101A, “L-ribofuranosyl nucleosides” (priority 1994, dated 1996)
Converted amounts (≈) assume the structure as drawn. Where two headings read alike, the source gives them in different places.

Key:
HT29 (colon) = assay: Radiometric growth inhibition of tumor cells, HT29; type: cell-based, human; parameters: % SURVIVAL TUMOR: concentration or dose not given beside the values; settings: for IC50: concentration required to kill 50%
Text: (§1) CELL LINES: Eight different established human cell lines CALU (lung), COLO320 (colon), H578St (breast), HT-29 (colon), MCF-7 (breast), OM-1 (colon), SKLU (lung) and SKMES(lung), and two control cell lines (bone marrow and/or fibroblast cells) were utilized. All cell lines were obtained from the Tumor Cloning Laboratory, Institute for Drug Development, Cancer Therapy and Research Center, San Antonio, Tex. All cell lines grew as monolayers in the appropriate culture medium supplemented with heat-inactivated calf serum. All reagents were obtained from Grand Island Biological Co., Grand Island, N.Y.
(§2) The iv formulations of the compounds of the present invention were prepared with sterile buffered saline and stored at -70° C. until required for testing.
(§3) Following trypsinization, tumor cells were suspended in tissue culture medium and exposed to the antitumor agents continuously at three different concentrations: 10, 1 and 0.1 μg/ml.
(§4) RADIOMETRIC MEASUREMENT OF GROWTH INHIBITION: Growth inhibition was assessed with the BACTEC System 460 (Johnston Laboratories, Towson, Md.) after addition of the antitumor agent to the cell in the respective growth medium containing ^14 C-glucose at a final concentration of 2 μCi/ml.
(§5) Two mls of the tumor cell suspension containing radioactive glucose were seeded into sterile, disposable 15 ml vials by injection through self-sealing rubber-aluminum caps. […] The seeded vials were then incubated at 37° C. Measurement of the release of ^14 CO2 resulting from the metabolism of ^14 C-glucose were performed on days 6, 9, 12 and 15 in the BACTEC instrument. This instrument flushes the ^14 CO2 containing air out of the vials into an ionization chamber that converts dpm to growth index values. […] Each data point represents triplicate values.
(§6) All compounds were dosed on an equimilimolar basis.

MCF-7 (breast) = assay: Radiometric growth inhibition of tumor cells, MCF-7; type: cell-based, human; parameters: % SURVIVAL TUMOR: concentration or dose not given beside the values; settings: MCF-7; for IC50: concentration required to kill 50%; for % SURVIVAL TUMOR: continuous exposure
Text: as §1, §2, §3, §4, §5, §6

SKLU (lung) = assay: Radiometric growth inhibition of tumor cells, SKLU; type: cell-based, human; parameters: % SURVIVAL TUMOR: concentration or dose not given beside the values
Text: as §1, §2, §3, §4, §5, §6

OM-1 (colon) = assay: Radiometric growth inhibition of tumor cells, OM-1; type: cell-based, human; parameters: % SURVIVAL TUMOR: concentration or dose not given beside the values
Text: as §1, §2, §3, §4, §5, §6

[1] = In vitro survival of bone marrow control cells (radiometric BACTEC); type: cell-based; parameters: concentration or dose not given beside the values
Text: as §1, §2, §3, §4, §5, §6

CALU (lung) = assay: Radiometric growth inhibition of tumor cells, CALU; type: cell-based, human; parameters: % SURVIVAL TUMOR: concentration or dose not given beside the values; settings: for IC50: Homo sapiens, concentration required to kill 50%, read-out: IC 50
Text: as §1, §2, §3, §4, §5, §6

COLO320 (colon) = assay: Radiometric growth inhibition of tumor cells, COLO320; type: cell-based, human; parameters: % SURVIVAL TUMOR: concentration or dose not given beside the values; settings: for IC50: Homo sapiens, COLO 320
Text: as §1, §2, §3, §4, §5, §6

[2] = Homo sapiens, HT-29, HT29, read-out: IC 50
[3] = bone marrow control cells, continuous exposure, read-out: % SURVIVAL BONE MARROW
[4] = Homo sapiens, MCF7, read-out: IC 50
[5] = Homo sapiens, SKLU, concentration required to kill 50%, read-out: IC 50
[6] = COLO320, concentration required to kill 50%, read-out: IC 50
[7] = human, colo320 colon tumor cells
[8] = Homo sapiens, OM-1, concentration required to kill 50%, read-out: IC 50

| Molecule | IC50 (HT29 (colon); [2]) [µg/mL] | viability [1, 3] [%] | viability ([1]; bone marrow cells) [%] | IC50 (SKLU (lung); [5]) [µg/mL] | IC50 (OM-1 (colon); [8]) [µg/mL] | % SURVIVAL TUMOR (OM-1 (colon); OM-1, continuous exposure) [%] | also measured |
| --- | --- | --- | --- | --- | --- | --- | --- |
| 2'-Deoxy-β-L-5-fluorouridine | – | – | – | – | – | – | IC50 (HT29 (colon); HT29): 85.2; IC50 (MCF-7 (breast)): 16.6; IC50 (SKLU (lung); SKLU, concentration required to kill 50%): 32.5; IC50 (OM-1 (colon); OM-1, concentration required to kill 50%): 62.9 |
| O=C(OC[C@@H]1O[C@@H](n2ccc(=S)[nH]c2=O)[C@@H](OC(=O)c2ccccc2)[C@H]1OC(=O)c1ccccc1)c1ccccc1 [1-(2,3,5-Tri-O-benzoyl-α-L-ribofuranosyl)-4-thiouracil] | > 10 | 85.9 | – | – | – | – | % SURVIVAL TUMOR (HT29 (colon); HT29, continuous exposure): 75% |
| O=c1ccn([C@@H]2CC[C@H](CO)O2)c(=O)[nH]1 [2',3'-β-L-dideoxy ribofuranosyl uracil, 2',3'-Dideoxy-β-L-uridine] | – | – | 79.8 | – | – | – | % SURVIVAL TUMOR (CALU (lung); CALU, continuous exposure): 0.4%; IC50 (CALU (lung); CALU): 0.623 µg/mL (≈ 2.94 µM) |
| O=c1[nH]c(=O)n([C@@H]2C[C@@H](O)[C@H](CO)O2)cc1F [2'-Deoxy-β-L-5-fluorouridine] | 8.46 (≈ 34.4 µM) | – | 109 | 59.9 (≈ 243 µM) | 56.1 (≈ 228 µM) | – | % SURVIVAL TUMOR (HT29 (colon); HT29, continuous exposure): 42.5%; IC50 (MCF-7 (breast); [4]): 60.7 µg/mL (≈ 247 µM); % SURVIVAL TUMOR (MCF-7 (breast)): 86.9%; % SURVIVAL TUMOR (SKLU (lung); human, sklu lung tumor cells): 86.2%; IC50 (COLO320 (colon); [6]): 6.56 µg/mL (≈ 26.6 µM); % SURVIVAL TUMOR (COLO320 (colon); [7]): 19.6%; % SURVIVAL TUMOR (OM-1 (colon); human, om-1 colon tumor cells): 85.2% |
| Nc1ncnc2c1ncn2[C@@H]1C[C@@H](O)[C@H](CO)O1 [2'-β-L-deoxy ribofuranosyl adenine] | – | – | 64.9 | – | – | – | IC50 (CALU (lung); CALU): 0.696 µg/mL (≈ 2.77 µM); % SURVIVAL TUMOR (CALU (lung); human, calu lung tumor cells): 28.9% |
| O=c1[nH]cnc2c1ncn2[C@@H]1C[C@@H](O)[C@H](CO)O1 [2'-β-L-deoxy ribofuranosyl hypoxanthine, 2'-Deoxy-β-L-inosine] | – | – | 110 | – | > 10 | – | % SURVIVAL TUMOR (OM-1 (colon); human, om-1 colon tumor cells): 83.1% |
| Cc1cn([C@@H]2C[C@@H](O)[C@H](CO)O2)c(=O)[nH]c1=O [2'-β-L-deoxy ribofuranosyl thymine, 2'-Deoxy-β-L-thymidine] | 30.4 (≈ 126 µM) | – | 159 | 38.2 (≈ 158 µM) | 6.5 (≈ 26.8 µM) | – | % SURVIVAL TUMOR (HT29 (colon); human, ht29 colon tumor cells): 72.2%; % SURVIVAL TUMOR (SKLU (lung); human, sklu lung tumor cells): 72.4%; IC50 (COLO320 (colon); [6]): 57.4 µg/mL (≈ 237 µM); % SURVIVAL TUMOR (COLO320 (colon); [7]): 67.0%; % SURVIVAL TUMOR (OM-1 (colon); human, om-1 colon tumor cells): 37.6% |
| O=c1[nH]c(=S)ccn1[C@@H]1C[C@@H](O)[C@H](CO)O1 [2'-β-L-deoxy ribofuranosyl-4-thiouracil, 2'-Deoxy-β-L-4-thiouridine] | – | 98.2 | – | > 10 | 34.3 (≈ 140 µM) | 82.3 | % SURVIVAL TUMOR (SKLU (lung); SKLU, continuous exposure): 79.4% |
| NC1=N[C@@H]2O[C@@H](CO)[C@H](O)[C@@H]2O1 [2-Amino-α-L-ribofurano[1',2':4,5]oxazoline] | – | 115 | – | – | 0.026 (≈ 0.149 µM) | 2.6 | – |
| NC1=N[C@H]2O[C@@H](CO)[C@H](O)[C@H]2O1 [2-Amino-β-L-arabinofurano[1',2':4,5]oxazoline] | – | 110 | – | – | 5 (≈ 28.7 µM) | 41.3 | IC50 (MCF-7 (breast); [4]): 187 µg/mL (≈ 1070 µM); % SURVIVAL TUMOR (MCF-7 (breast)): 88.8%; % SURVIVAL TUMOR (CALU (lung); CALU, continuous exposure): 89%; IC50 (CALU (lung); CALU): 44.6 µg/mL (≈ 256 µM) |
| O=C(OC[C@@H]1O[C@H](n2ccc(=S)[nH]c2=O)C[C@H]1OC(=O)c1ccccc1)c1ccccc1 [3',5'-Di-O-benzoyl-2'deoxy-4-thio β-L-uridine] | – | 102 | – | 88.7 (≈ 196 µM) | 0.98 (≈ 2.17 µM) | 35.7 | IC50 (MCF-7 (breast); [4]): > 10 µg/mL; % SURVIVAL TUMOR (MCF-7 (breast)): 84.5%; % SURVIVAL TUMOR (SKLU (lung); SKLU, continuous exposure): 77.7% |
| O=c1ccn2c(n1)O[C@H]1[C@@H](O)[C@H](CO)O[C@H]12 [O^2,O^2' -Anhydro-1-α-L-ribofuranosyluracil] | – | 70.9 | – | – | 2.97 (≈ 13.1 µM) | 46.4 | – |
| Nc1ccn([C@@H]2O[C@@H](CO)[C@H](O)[C@@H]2O)c(=O)n1 [α-L-ribofuranosyl cytosine, 1-α-L-Ribofuranosylcytosine] | – | 120 | – | – | – | – | IC50 (SKLU (lung); Homo sapiens): 240 µg/mL (≈ 987 µM); % SURVIVAL TUMOR (SKLU (lung); SKLU, continuous exposure): 88.8%; % SURVIVAL TUMOR (COLO320 (colon); COLO320, continuous exposure): 82.3%; IC50 (COLO320 (colon)): 34.9 µg/mL (≈ 143 µM) |
| O=c1[nH]c(=O)n([C@@H]2O[C@@H](CO)[C@H](O)[C@@H]2O)cc1F [α-L-ribofuranosyl-5-fluorouracil, 1-α-L-ribofuranosyl-5-fluorouracil] | – | 94.6 | – | 43.4 (≈ 166 µM) | 0.87 (≈ 3.32 µM) | 0.4 | % SURVIVAL TUMOR (SKLU (lung); SKLU, continuous exposure): 71% |
| O=c1ccn([C@@H]2O[C@@H](CO)[C@H](O)[C@@H]2O)c(=O)[nH]1 [α-L-ribofuranosyl-uracil, 1-α-L-Ribofuranosyluracil] | – | – | 96.6 | – | – | – | IC50 (CALU (lung); CALU): > 10 µg/mL; % SURVIVAL TUMOR (CALU (lung); human, calu lung tumor cells): 89.1% |
| Nc1ncnc2c1ncn2[C@H]1O[C@@H](CO)[C@H](O)[C@@H]1O [β-L-ribofuranosyl adenine, 9-β-L-Ribofuranosyladenine] | – | – | 91.2 | – | 4.23 (≈ 15.8 µM) | – | % SURVIVAL TUMOR (OM-1 (colon); human, om-1 colon tumor cells): 50.9% |
| Nc1ccn([C@H]2O[C@@H](CO)[C@H](O)[C@@H]2O)c(=O)n1 [β-L-ribofuranosyl cytosine, 1-β-L-Ribofuranosylcytosine] | – | 72.6 | – | – | – | 39.2 | IC50 (OM-1 (colon); Homo sapiens): 5.9 µg/mL (≈ 24.3 µM) |
| Nc1nc(O)c2ncn([C@H]3O[C@@H](CO)[C@H](O)[C@@H]3O)c2n1 [β-L-ribofuranosyl guanine, 9-β-L-Ribofuranosylguanine] | > 10 | 170 | – | – | 0.097 (≈ 0.342 µM) | 44.7 | % SURVIVAL TUMOR (HT29 (colon); HT29, continuous exposure): 80.9% |
| O=c1ccn([C@H]2O[C@@H](CO)[C@H](O)[C@@H]2O)c(=O)[nH]1 [β-L-ribofuranosyl uracil, 1-β-L-Ribofuranosyluracil] | > 10 | – | 112 | – | 0.094 (≈ 0.385 µM) | – | % SURVIVAL TUMOR (HT29 (colon); human, ht29 colon tumor cells): 78.7%; % SURVIVAL TUMOR (OM-1 (colon); human, om-1 colon tumor cells): 30.8% |
| O=c1[nH]c(=O)n([C@H]2O[C@@H](CO)[C@H](O)[C@@H]2O)cc1F [β-L-ribofuranosyl-5-fluorouracil, 1-β-L-Ribofuranosyl-5-fluorouracil] | 51 (≈ 195 µM) | 130 | – | 32.2 (≈ 123 µM) | 37.8 (≈ 144 µM) | 71.9 | % SURVIVAL TUMOR (HT29 (colon); HT29, continuous exposure): 64.7%; % SURVIVAL TUMOR (SKLU (lung); SKLU, continuous exposure): 69.7%; % SURVIVAL TUMOR (COLO320 (colon); COLO320, continuous exposure): 81.9%; IC50 (COLO320 (colon); [6]): 188 µg/mL (≈ 717 µM) |
